The record followed here is patent US6291640A, “Peptidomimetic inhibitors of the human cytomegalovirus protease” (Boehringer Ingelheim Ltd., priority 1998, dated 2001).

For the assay, the target named is T1, porcine pancreatic elastase (PPE) (Sus scrofa, UniProt P00772).
T1 construct: porcine pancreas elastase #1027891 lot 83260521-23; purchased Boehringer Mannheim #1027891
Description: Specificity assay, porcine pancreatic elastase. The assay is classed as biochemical. The procedure:
The specificity of the compounds was determined against a variety of serine proteases (Human leukocyte and porcine pancreatic elastases (HLE & PPE), bovine pancreas α-chymotrypsin) and one cysteine protease (Human liver cathepsin B). In all cases a 96-well plate format protocol using a calorimetric p-nitroanilide (pNA) substrate specific for each enzyme was used. Each assay included a 1 hr pre-incubation enzyme-inhibitor at 30° C. followed by addition of substrate and hydrolysis to ≈30% conversion as measured by scanning on a UV Thermomax microplate reader. Substrate concentrations were kept as low as possible compared to KM to reduce substrate competition. […] The final conditions for each assay were as followed: 50 mM Tris/HCl pH 8, 0.5 M Na2 SO4, 50 mM NaCl, 0.1 mM EDTA, 3% DMSO, 0.01% Tween-20 with [100 μM Succ-AAPF-pNA and 250 pM α-chymotrypsin], [133 μM Succ-AAA-pNA and 8 nM porcine elastase], or [133 μM Succ-AAV-pNA and 8 nM leukocyte elastase]. 100 mM NaH2 PO4 pH 6, 0.1 mM EDTA, 3% DMSO, 1 mM TCEP, 0.01% Tween-20, 30 μM Z-FR-pNA and 5 nM cathepsin B (the stock enzyme was activated in buffer containing 20 mM TCEP before use).

T1 sequence (P00772 27-266): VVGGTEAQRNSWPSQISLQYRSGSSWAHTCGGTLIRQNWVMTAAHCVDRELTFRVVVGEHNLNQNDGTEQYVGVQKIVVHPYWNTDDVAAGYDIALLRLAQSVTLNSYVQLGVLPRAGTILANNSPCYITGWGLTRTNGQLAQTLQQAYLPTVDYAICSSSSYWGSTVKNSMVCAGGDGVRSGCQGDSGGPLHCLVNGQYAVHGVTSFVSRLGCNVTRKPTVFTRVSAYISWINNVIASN

For `CC(NC(=O)[C@H](CC(=O)N(C)C)NC(=O)[C@@H](NC(=O)CC(C)(C)C)C(C)(C)C)C(=O)c1nc2ncccc2o1` (stereo partly drawn) [Compound 81, N4,N4-dimethyl-N1-(1-methyl-2-[1,3]oxazolo[4,5-b]pyridin-2-yl-2-oxoethyl)-(2S)-2-{[(1S)-2,2-dimethyl-1-(neopentylcarboxamido)propyl]carboxamido} butanediamide], the “inhibition of PPE” value is “not an inhibitor of PPE”.
